In one series the target is T1, CYP2C8 (Homo sapiens, UniProt P10632).
T1 construct: each reaction was performed with 0.5 mg/mL pooled human liver microsomes; tissue Corning Gentest BD UltraPool HLM 150; host or cells: pooled human liver microsomes
T1 sequence (P10632 1-490): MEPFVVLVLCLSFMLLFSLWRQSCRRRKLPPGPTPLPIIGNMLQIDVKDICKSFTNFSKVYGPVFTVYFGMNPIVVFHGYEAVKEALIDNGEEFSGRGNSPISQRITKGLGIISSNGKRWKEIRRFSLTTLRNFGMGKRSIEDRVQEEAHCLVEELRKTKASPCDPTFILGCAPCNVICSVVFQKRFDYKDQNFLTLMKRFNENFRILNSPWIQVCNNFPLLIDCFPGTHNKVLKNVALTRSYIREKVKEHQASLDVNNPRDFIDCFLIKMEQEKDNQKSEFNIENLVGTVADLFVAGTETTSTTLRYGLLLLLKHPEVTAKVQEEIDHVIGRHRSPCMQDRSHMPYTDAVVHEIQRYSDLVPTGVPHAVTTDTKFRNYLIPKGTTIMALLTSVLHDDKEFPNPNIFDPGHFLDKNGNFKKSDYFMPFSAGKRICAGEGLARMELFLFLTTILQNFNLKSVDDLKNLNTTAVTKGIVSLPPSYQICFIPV
Description: CYP inhibition, cocktail of probe substrates in pooled human liver microsomes: paclitaxel hydroxylation. Conditions: pooled HLMs, substrate 10 μM. Format: in vitro ADME.

The target in another series is T2, CYP1A (Homo sapiens, UniProt P05177).
T2 sequence (P05177 2-516): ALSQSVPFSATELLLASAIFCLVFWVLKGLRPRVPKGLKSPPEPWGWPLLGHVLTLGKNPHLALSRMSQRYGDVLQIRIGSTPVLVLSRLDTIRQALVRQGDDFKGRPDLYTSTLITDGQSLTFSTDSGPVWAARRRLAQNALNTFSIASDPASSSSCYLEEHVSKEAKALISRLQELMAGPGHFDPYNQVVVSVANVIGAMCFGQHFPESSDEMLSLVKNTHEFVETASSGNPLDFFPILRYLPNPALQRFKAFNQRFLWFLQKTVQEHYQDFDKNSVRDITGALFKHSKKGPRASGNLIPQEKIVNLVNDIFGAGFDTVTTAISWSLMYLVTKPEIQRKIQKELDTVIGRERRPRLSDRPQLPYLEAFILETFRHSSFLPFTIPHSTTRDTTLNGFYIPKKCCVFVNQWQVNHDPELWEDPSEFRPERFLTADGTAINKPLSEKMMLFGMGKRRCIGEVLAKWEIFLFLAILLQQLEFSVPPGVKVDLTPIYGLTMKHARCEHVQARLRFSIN
Description: Inhibition mode on CYP1A-catalyzed phenacetin O-deethylation in HLMs (Lineweaver-Burk and secondary plot). Format: in vitro ADME. Conditions: for inhibition mechanism on CYP1A in HLMs: pooled HLMs, phenacetin O-deethylation, Lineweaver-Burk plot / IC50 shift. As to the method:
To characterize the inhibition mode on CYP1A by bakuchicin, 0.5 mg/mL of HLMs was incubated with bakuchicin at 0, 0.2, 0.4, and 0.8 μM in 0.1 M potassium phosphate buffer (pH 7.4) for 60 min at 37°C. Those were terminated by adding 100 μL acetonitrile containing 0.1% formic acid and 2.5 μL of internal standard solution (5 μM reserpine) in methanol. After mixing and centrifuging at 13,000 ×g for 12 min, a 5 μL aliquot was injected onto a C18 column for LC-MS/MS analysis. Phenacetin was used as a probe substrate at 20, 40, or 80 μM. The inhibition pattern was investigated by Michaelis-Menten and its secondary plotting.
(§1) All measurements were performed using LC-MS/MS in multiple reaction monitoring mode. LC-MS/MS was performed using an Accela™ LC system coupled to a TSQ Vantage triple quadrupole mass spectrometer (Thermo Fisher Scientific Inc., USA) equipped with a HESI-II Spray source. Electrospray ionization was performed in positive mode at a spray voltage of 3,500 V (except for the detection of 6-hydroxy chlorzoxazone). Nitrogen was used as a sheath and auxiliary gas at optimum values of 45 and 20 (arbitrary units), respectively. Vaporizer and capillary temperatures were 150 and 300°C, respectively. For LC analysis an Inertsil® ODS-2 (3 μm, 2.1 × 150 mm) column (GL Sciences Inc., Torrance, CA) was used. The mobile phase consisted of acetonitrile (mobile phase A) and water (mobile phase B), both of which contained 0.1% formic acid, at a flow rate of 0.22 mL/min at 30°C.
(§2) All incubations were performed in duplicate, and data are presented as means. IC50 values (the concentration of inhibitor causing a 50% inhibition in enzyme activity) were obtained using percent activity versus log[I] concentration plots. Kinetic parameters were estimated by curve fitting using SigmaPlot (version 12.0, Systat Software, Inc.).

The target in series [1] is T3, human recombinant cDNA-expressed CYP1A2 (Homo sapiens, UniProt P05177).
T3 construct: purchased Corning Gentest (Woburn, MA)
T3 sequence (P05177 1-516): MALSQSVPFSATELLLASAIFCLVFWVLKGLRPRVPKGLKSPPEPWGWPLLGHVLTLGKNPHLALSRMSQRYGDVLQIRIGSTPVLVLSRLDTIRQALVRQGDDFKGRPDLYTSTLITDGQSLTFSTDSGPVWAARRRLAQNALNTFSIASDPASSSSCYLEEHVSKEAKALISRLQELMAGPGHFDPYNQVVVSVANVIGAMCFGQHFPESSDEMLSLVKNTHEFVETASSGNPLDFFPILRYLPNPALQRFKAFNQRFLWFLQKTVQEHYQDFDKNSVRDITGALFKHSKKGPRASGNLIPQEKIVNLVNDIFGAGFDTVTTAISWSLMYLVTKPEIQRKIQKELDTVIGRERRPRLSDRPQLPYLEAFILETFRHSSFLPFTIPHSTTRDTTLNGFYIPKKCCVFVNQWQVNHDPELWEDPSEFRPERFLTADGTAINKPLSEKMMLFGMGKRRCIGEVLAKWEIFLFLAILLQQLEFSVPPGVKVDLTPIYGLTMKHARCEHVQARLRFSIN
Description: Inhibition of phenacetin O-deethylation by human recombinant cDNA-expressed CYP1A2. Type of series: biochemical. As to the method: To confirm the selective inhibition of CYP1A by bakuchicin, 10 pmol of human recombinant cDNA-expressed CYP1A1 and CYP1A2 was incubated with bakuchicin at 0.1–50 μM and NGS for 60 min at 37°C after the addition of 80 μM phenacetin as a selective CYP1A substrate. Those were terminated by adding 100 μL acetonitrile containing 0.1% formic acid and 2.5 μL of internal standard solution (5 μM reserpine) in methanol. After mixing and centrifuging at 13,000 ×g for 12 min, a 5 μL aliquot was injected onto a C18 column for LC-MS/MS analysis. CYP1A1 and CYP1A2 activities were determined by phenacetin O-deethylation. The inhibition patterns of bakuchicin on CYP1A in human recombinant cDNA-expressed CYP1A1 and CYP1A2 were confirmed by Michaelis-Menten and secondary plot.
as §1, §2

We go through 1 compound from paper PMC4763008, “Selective Inhibition of Bakuchicin Isolated from Psoralea corylifolia on CYP1A in Human Liver Microsomes” (Evidence-based Complementary and Alternative Medicine : eCAM, 2016).

Entries after “also recorded” stand apart in the source; their conditions may differ. Like-named read-outs stand apart in the source and are kept apart here.

Usually IC50 stands for the midpoint of a concentration-inhibition curve. The term Ki denotes a dissociation constant, usually derived from enzyme kinetics or from competition with a known ligand. As to `O=c1ccc2c(ccc3ccoc32)o1` [Bakuchicin], the IC50 was more than 100000 nM at CYP2C8 (15 min preincubation with NADPH, read-out: IC50 With preincubation with NADPH); more than 100000 nM on CYP2C8 (15 min preincubation without NADPH, read-out: IC50 With preincubation Without NADPH); more than 100000 nM on CYP2C8 (without preincubation, read-out: IC50 Without preincubation); 1400 nM in series [1] (recombinant CYP1A2, 80 μM phenacetin, 60 min, read-out: IC50, CYP1A2-catalyzed phenacetin O-deethylase activity). For the same compound, affinity at CYP1A (human, pooled human liver microsomes, pH 7.4, probe phenacetin (O-deethylation), phenacetin 20, 40, 80 μM, 60 min incubation) was put at a Ki at 60 min of 90 nM. For the same compound, the “inhibition mechanism on CYP1A in HLMs” value is “reversible competitive inhibitor” at CYP1A and “competitive inhibition; also recorded: reversible inhibitor” on CYP1A (listed as bakuchicin). Further, in series [1] (recombinant CYP1A2, Lineweaver-Burk plot), the “inhibition mode on CYP1A2” value is “competitive inhibitor; also recorded: competitive inhibition”. In series [1] (recombinant CYP1A2, phenacetin 20, 40, 80 μM, 60 min, read-out: Ki on CYP1A2 (secondary plot)), the inhibitory constant (Ki) stood at 320 nM. The “Ki on CYP1A2 relative to Ki on CYP1A1” value in series [1] (recombinant enzymes) turned out to be 3 fold. In addition, the “IC50 for CYP1A2 relative to CYP1A1” value in series [1] (recombinant enzymes, CYP1A2 IC50 higher than CYP1A1 IC50) was determined as 7 fold.
